Laboratory results reported in the NIST ThermoML archive (doi:10.1016/j.jct.2017.08.004).
± gives the expanded uncertainty stated by the source.

Assays:
[1] = for molar entropy: 101.33 kPa
[2] = Molar enthalpy of transition or fusion; conditions: Crystal; DSC

OC[C@@H](O)C(O)[C@H](O)CO [D-arabitol]
[1]
Conditions | molar entropy [J/K/mol]
1 K, Crystal, relaxation calorimetry | 0.0005801 ± 6.3e-05
2 K, Crystal, relaxation calorimetry | 0.002268 ± 0.00022
3 K, Crystal, relaxation calorimetry | 0.006257 ± 0.00059
4 K, Crystal, relaxation calorimetry | 0.01391 ± 0.0013
5 K, Crystal, relaxation calorimetry | 0.02686 ± 0.0025
6 K, Crystal, relaxation calorimetry | 0.04705 ± 0.0044
7 K, Crystal, relaxation calorimetry | 0.07698 ± 0.0071
8 K, Crystal, relaxation calorimetry | 0.1198 ± 0.011
9 K, Crystal, relaxation calorimetry | 0.179 ± 0.017
10 K, Crystal, relaxation calorimetry | 0.2576 ± 0.024
15 K, Crystal, relaxation calorimetry | 1.012 ± 0.093
20 K, Crystal, relaxation calorimetry | 2.431 ± 0.22
25 K, Crystal, relaxation calorimetry | 4.457 ± 0.41
30 K, Crystal, relaxation calorimetry | 6.97 ± 0.64
35 K, Crystal, relaxation calorimetry | 9.854 ± 0.91
40 K, Crystal, relaxation calorimetry | 13.02 ± 1.2
45 K, Crystal, relaxation calorimetry | 16.41 ± 1.5
50 K, Crystal, relaxation calorimetry | 19.95 ± 1.8
55 K, Crystal, relaxation calorimetry | 23.61 ± 2.2
60 K, Crystal, relaxation calorimetry | 27.36 ± 2.5
65 K, Crystal, relaxation calorimetry | 31.16 ± 2.9
70 K, Crystal, relaxation calorimetry | 35.01 ± 3.2
75 K, Crystal, relaxation calorimetry | 38.9 ± 3.6
80 K, Crystal, relaxation calorimetry | 42.79 ± 3.9
85 K, Crystal, relaxation calorimetry | 46.7 ± 4.3
90 K, Crystal, relaxation calorimetry | 50.61 ± 4.6
95 K, Crystal, relaxation calorimetry | 54.52 ± 5
100 K, Crystal, relaxation calorimetry | 58.42 ± 5.4
110 K, Crystal, relaxation calorimetry | 66.18 ± 6.1
120 K, Crystal, relaxation calorimetry | 73.87 ± 6.8
130 K, Crystal, relaxation calorimetry | 81.48 ± 7.5
140 K, Crystal, relaxation calorimetry | 89.01 ± 8.2
150 K, Crystal, relaxation calorimetry | 96.45 ± 8.9
160 K, Crystal, relaxation calorimetry | 103.81 ± 9.5
170 K, Crystal, relaxation calorimetry | 111.08 ± 10
180 K, Crystal, relaxation calorimetry | 118.28 ± 11
190 K, Crystal, relaxation calorimetry | 125.41 ± 12
200 K, Crystal, relaxation calorimetry | 132.48 ± 12
210 K, Crystal, relaxation calorimetry | 139.49 ± 13
220 K, Crystal, relaxation calorimetry | 146.44 ± 13
230 K, Crystal, relaxation calorimetry | 153.36 ± 14
240 K, Crystal, relaxation calorimetry | 160.23 ± 15
250 K, Crystal, relaxation calorimetry | 167.08 ± 15
260 K, Crystal, relaxation calorimetry | 173.89 ± 16
270 K, Crystal, relaxation calorimetry | 180.69 ± 17
273.15 K, Crystal, relaxation calorimetry | 182.82 ± 17
280 K, Crystal, relaxation calorimetry | 187.46 ± 17
290 K, Crystal, relaxation calorimetry | 194.23 ± 18
298.15 K, Crystal, relaxation calorimetry | 199.73 ± 18
300 K, Crystal, relaxation calorimetry | 200.98 ± 18
305 K, Crystal, Small sample (50 mg) DSC | 204.36 ± 25
310 K, Crystal, Small sample (50 mg) DSC | 207.75 ± 25
315 K, Crystal, Small sample (50 mg) DSC | 211.16 ± 26
320 K, Crystal, Small sample (50 mg) DSC | 214.58 ± 26
325 K, Crystal, Small sample (50 mg) DSC | 218.03 ± 27
330 K, Crystal, Small sample (50 mg) DSC | 221.5 ± 27
335 K, Crystal, Small sample (50 mg) DSC | 224.99 ± 27
340 K, Crystal, Small sample (50 mg) DSC | 228.51 ± 28
345 K, Crystal, Small sample (50 mg) DSC | 232.07 ± 28
350 K, Crystal, Small sample (50 mg) DSC | 235.68 ± 29
355 K, Crystal, Small sample (50 mg) DSC | 239.39 ± 29
360 K, Crystal, Small sample (50 mg) DSC | 243.37 ± 30
365 K, Crystal, Small sample (50 mg) DSC | 248.05 ± 30
390 K, Liquid, Small sample (50 mg) DSC | 369.2 ± 45
395 K, Liquid, Small sample (50 mg) DSC | 374.96 ± 46
400 K, Liquid, Small sample (50 mg) DSC | 380.58 ± 46
405 K, Liquid, Small sample (50 mg) DSC | 386.13 ± 47
410 K, Liquid, Small sample (50 mg) DSC | 391.63 ± 48
415 K, Liquid, Small sample (50 mg) DSC | 397.09 ± 48
420 K, Liquid, Small sample (50 mg) DSC | 402.53 ± 49

Conditions | Normal melting temperature [°C]
[1], Crystal, DTA | 99.23 ± 0.61

Conditions | Molar enthalpy of transition or fusion [kcal/mol]
[2] | 9.46 ± 0.789
